SMILES strings stand for the structures.

Assay [1] concerns the target Adenosine receptor A2a (Homo sapiens, UniProt P29274). The assay can be described thus: Binding Affinities to Different Adenosine Receptors: The compounds at different concentrations were incubate with hA1 membrane (from PerkinElmer) and [3H]-8-Cyclopentyl-1,3-dipropylxanthine (DPCPX) for 50 min at 25° C., meanwhile 100 μL 0.5% PEI solution was added into […]-96 GF/B filter plate for 60 min at 4° C., then […]-96 GF/B filter plate was washed twice with 50 ml wash buffer, the membrane mix was transferred into […]-96 GF/B filter plate, and the filter plate was washed 4 times before incubated at 55° C. for 10 min. At last, […] ULTIMA GOLD was added into each well, and CPM was read by TopCount.The compounds at different concentrations were incubate with hA2a membrane (from PerkinElmer) and [3H]-CGS21680 for 90 min at 25° C., meanwhile 100 μL 0.5% PEI solution was added into […]-96 GF/B filter plate for 60 min at 4° C., then […]-96 GF/B filter plate was washed twice with 50 ml wash buffer, the membrane mix was transferred into […]-96 GF/B filter plate, and the filter plate was washed 4 times before incubated at 55° C. for 10 min. At last, […] ULTIMA GOLD was added into each well, and CPM was read by TopCount.The compounds at different concentrations were incubate with hA2b membrane (from PerkinElmer) and [3H]-DPCPX for 60 min at 27° C., and the binding reactions were stopped by rapid filtration through 0.5% BSA coated […]-96 GF/C plates using cell harvester. […].

The next assay has as its target T1, Adenosine receptor A2b (Homo sapiens, UniProt P29275).
T1 sequence (P29275 whole entry): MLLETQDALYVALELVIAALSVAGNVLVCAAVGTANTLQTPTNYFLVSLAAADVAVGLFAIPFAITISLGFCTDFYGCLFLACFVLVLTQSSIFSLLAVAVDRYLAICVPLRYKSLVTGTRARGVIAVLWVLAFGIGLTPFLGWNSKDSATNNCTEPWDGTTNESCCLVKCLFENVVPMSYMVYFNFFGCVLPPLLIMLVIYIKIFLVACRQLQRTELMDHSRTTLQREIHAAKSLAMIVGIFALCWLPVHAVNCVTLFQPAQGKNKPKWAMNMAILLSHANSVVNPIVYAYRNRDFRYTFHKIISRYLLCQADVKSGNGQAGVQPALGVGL
The assay can be described thus: (§1) FLIPR and cAMP Inhibition Assay: hADORA1/CHO (hA1 expressing) cells (Genscript) were plated at 1×10^4 cells/well into 384-well polystyrene plates one day before starting the experiment. On the day of experiment, the supernatant was discard and replaced with 40 µL of dye (FLIPR calcium 5 Assay Kit) per well and the plates were incubated for 60 mins at 37° C. plus 5% CO2. Then testing compounds were added at different concentrations for FLIPR™ inhibition assay. After a 400 s incubation with compound, […] was added into the cells, and the signal was captured by FLIPR.hA2a/CHO, hA2b/CHO and mA2a/CHO (Genscript) were plated at 5×10^3 cells/well into 384-well polystyrene plates at the day of experiment. Compounds were pre-incubated with cells for 30 min at 37° C., 5% CO2. Then […] was added to the cells and incubated for 30 min at 37° C., 5% CO2. Detection reagent (CISBIO) was added and the plates were incubated for 60 min at room temperature. The signal was captured by Envision.

In another assay the target is T2, Adenosine receptor A1 (Homo sapiens, UniProt P30542).
T2 sequence (P30542 whole entry): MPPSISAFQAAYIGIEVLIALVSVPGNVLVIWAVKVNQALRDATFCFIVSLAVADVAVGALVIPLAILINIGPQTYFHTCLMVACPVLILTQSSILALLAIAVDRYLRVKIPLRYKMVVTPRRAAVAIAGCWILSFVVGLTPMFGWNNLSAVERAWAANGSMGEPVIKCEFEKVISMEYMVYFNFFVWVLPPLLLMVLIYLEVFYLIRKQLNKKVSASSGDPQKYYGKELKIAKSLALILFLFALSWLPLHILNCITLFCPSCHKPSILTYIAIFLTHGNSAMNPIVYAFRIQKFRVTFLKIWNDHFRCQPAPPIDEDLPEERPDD
The description is as §1.

The target in assay [2] is Adenosine receptor A2a (Mus musculus, UniProt Q60613). Described as §1.
Sequence of Adenosine receptor A2a (Mus musculus, UniProt Q60613) (Q60613 whole entry): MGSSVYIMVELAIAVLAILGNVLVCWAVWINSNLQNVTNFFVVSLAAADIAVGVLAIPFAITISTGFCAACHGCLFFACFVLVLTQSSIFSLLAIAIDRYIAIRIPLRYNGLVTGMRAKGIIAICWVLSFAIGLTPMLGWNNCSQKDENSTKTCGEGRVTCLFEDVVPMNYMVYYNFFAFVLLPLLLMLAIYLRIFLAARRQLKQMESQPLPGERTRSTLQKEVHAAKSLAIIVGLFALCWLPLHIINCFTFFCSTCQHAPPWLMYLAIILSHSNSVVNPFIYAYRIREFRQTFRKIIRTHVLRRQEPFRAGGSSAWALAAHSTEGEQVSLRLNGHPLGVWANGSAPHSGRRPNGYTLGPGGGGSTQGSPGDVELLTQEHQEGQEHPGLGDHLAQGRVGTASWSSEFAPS

Sequence of Adenosine receptor A2a (Homo sapiens, UniProt P29274) (P29274 whole entry): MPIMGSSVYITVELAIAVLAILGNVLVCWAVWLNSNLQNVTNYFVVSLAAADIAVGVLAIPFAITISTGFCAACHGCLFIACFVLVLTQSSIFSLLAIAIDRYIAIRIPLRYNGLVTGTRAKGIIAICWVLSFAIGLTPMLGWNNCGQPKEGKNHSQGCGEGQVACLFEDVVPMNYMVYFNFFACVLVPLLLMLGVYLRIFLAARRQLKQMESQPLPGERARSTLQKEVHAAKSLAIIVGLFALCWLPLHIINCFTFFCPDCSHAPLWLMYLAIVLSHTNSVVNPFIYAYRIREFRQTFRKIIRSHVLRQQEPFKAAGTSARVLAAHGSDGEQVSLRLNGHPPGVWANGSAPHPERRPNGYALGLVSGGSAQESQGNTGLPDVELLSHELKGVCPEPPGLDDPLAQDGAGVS

Consider `Nc1nc(-n2ccnn2)c(-c2ccc3nccn3c2)c2nc(Cc3ncccc3F)nn12`, for which the IC50 (usually the concentration at which inhibition is half-maximal) came out at 103 nM on Adenosine receptor A2a [1], 1110 nM at Adenosine receptor A2b, 779 nM at Adenosine receptor A1 and 170 nM on Adenosine receptor A2a [2].

In the case of `Cc1cnc2ccc(-c3c(N4CCOCC4)nc(N)n4nc(Cc5c(F)cccc5F)nc34)cn12`, the IC50 at Adenosine receptor A2a [1] amounted to 0.2 nM; at Adenosine receptor A2b, 44.5 nM; on Adenosine receptor A2a [2], 2.9 nM.

For the origin of these results see ChEMBL document CHEMBL5728138, “Triazolo-pyrimidine compounds and uses thereof” (2020).
